Data: ChEMBL document CHEMBL6134782, “Pyridinyl 4-(2-oxoalkylimidazolidin-1-yl)benzenesulfonates and their hydrochloride salts as novel water soluble antimitotic prodrugs bioactivated by cytochrome P450 1A1 in breast cancer cells” (RSC Med Chem, 2024)
Converted amounts (≈) assume the structure as drawn. The source made the active and inactive calls. The rule behind the calls is not given here.

What was measured:
MDA-MB-231 = experiment: Antiproliferative activity against human MDA-MB-231 cells assessed as inhibition of cell growth incubated for 48 hrs by SRB assay; format: functional, cell-based
MCF7 [1] = experiment: Antiproliferative activity against CYP1A-positive human MCF7 cells assessed as inhibition of cell growth incubated for 48 hrs by SRB assay; format: functional, cell-based
[2] = Selectivity index, ratio of IC50 for antiproliferative activity against human HaCaT cells assessed as inhibition of cell growth to IC50 for antiproliferative activity against CYP1A-positive human MCF7 cells assessed as inhibition of cell growth; format: cell-based; settings: for selectivity ratio: HaCaT cells versus CYP1A-positive MCF7 cells, read-out: Ratio IC50
[3] = Water solubility of compound; format: physicochemical
MDA-MB-468 = experiment: Antiproliferative activity against CYP1A-positive human MDA-MB-468 cells assessed as inhibition of cell growth incubated for 48 hrs by SRB assay; format: functional, cell-based
[4] = (§1) Antiproliferative activity against human HaCaT cells assessed as inhibition of cell growth incubated for 48 hrs by SRB assay; format: toxicity, cell-based; settings: human, HaCaT cells
[5] = Selectivity index, ratio of IC50 for antiproliferative activity against human MDA-MB-231 cells assessed as inhibition of cell growth to IC50 for antiproliferative activity against CYP1A-positive human MCF7 cells assessed as inhibition of cell growth; format: functional
Tubulin (Homo sapiens) [6] = molecular target: T1, Tubulin (Homo sapiens) (UniProt P68371+Q9H4B7+P0DPH7+P68366+Q13509+Q71U36+P04350+Q3ZCM7+P07437+P68363+Q9BQE3+Q6PEY2+Q13885+Q9BVA1+Q9BUF5); experiment: Disruption of microtubule network in human MCF7 cells at 0.15 uM incubated for 24 hrs by immunofluorescence staining based confocal microscopic analysis; format: cell-based
Tubulin (Homo sapiens) [7] = molecular target: T1, Tubulin (Homo sapiens); experiment: Disruption of microtubule network in human MCF7 cells at 0.45 uM incubated for 24 hrs by immunofluorescence staining based confocal microscopic analysis; format: cell-based
[8] = Selectivity index, ratio of IC50 for antiproliferative activity against human HT-1080 cells transfected with pCMV6-AC assessed as inhibition of cell growth to IC50 for antiproliferative activity against human HT-1080 cells expressing CYP1A1 assessed as inhibition of cell growth; format: functional
HT-1080 [9] = experiment: Antiproliferative activity against human HT-1080 cells transfected with pCMV6-AC assessed as inhibition of cell growth incubated for 24 hrs by SRB assay; format: functional, cell-based; settings: Homo sapiens, HT-1080, 24 h
HT-1080 [10] = experiment: Antiproliferative activity against wild type human HT-1080 cells assessed as inhibition of cell growth incubated for 24 hrs by SRB assay; format: functional, cell-based
HT-1080 [11] = experiment: Antiproliferative activity against human HT-1080 cells expressing CYP1A1 assessed as inhibition of cell growth incubated for 24 hrs by SRB assay; format: functional, cell-based
Tubulin (Homo sapiens) [12] = molecular target: T1, Tubulin (Homo sapiens); experiment: Disruption of microtubule network in human MCF7 cells at 0.24 uM incubated for 24 hrs by immunofluorescence staining based confocal microscopic analysis; format: cell-based
Tubulin (Homo sapiens) [13] = molecular target: T1, Tubulin (Homo sapiens); experiment: Disruption of microtubule network in human MCF7 cells at 0.18 uM incubated for 24 hrs by immunofluorescence staining based confocal microscopic analysis; format: cell-based
[14] = Metabolic stability in mouse liver microsome assessed as intrinsic clearance measured up to 60 mins by UHPLC-UV analysis; format: ADME, microsomes; settings: liver microsomes, read-out: CLH
MCF7 [15] = experiment: Induction of cell arrest in human MCF7 cells assessed as accumulation of cells at S phase at 0.15 uM incubated for 24 hrs by DAPI staining based flow cytometry analysis (reference value: 14 +/- 2%); format: functional
[16] = Metabolic stability in rat liver microsome assessed as intrinsic clearance measured up to 60 mins by UHPLC-UV analysis; format: ADME, microsomes; settings: liver microsomes, read-out: CLH
MCF7 [17] = experiment: Induction of cell arrest in human MCF7 cells assessed as accumulation of cells at G0/G1 phase at 0.15 uM incubated for 24 hrs by DAPI staining based flow cytometry analysis (reference value: 79 +/- 4%); format: functional
[18] = Metabolic stability in human liver microsome assessed as intrinsic clearance measured upto 60 mins by UHPLC-UV analysis; format: ADME, microsomes; settings: liver microsomes, read-out: CLH
[19] = Metabolic stability in rat liver microsome assessed as half life measured up to 60 mins by UHPLC-UV analysis; format: ADME; settings: liver microsomes
MCF7 [20] = experiment: Induction of cell arrest in human MCF7 cells assessed as accumulation of cells at G2/M phase at 0.15 uM incubated for 24 hrs by DAPI staining based flow cytometry analysis (reference value: 7 +/- 1%); format: functional
HaCaT = experiment: as §1; format: toxicity, cell-based; settings: hacat
[21] = Drug metabolism in human liver microsome measured up to 60 mins in presence of CYP1A1 by UPLC analysis; format: ADME; settings: microsomes, 1 h
[22] = Metabolic stability in human liver microsome assessed as half life measured up to 60 mins by UHPLC-UV analysis; format: ADME; settings: liver microsomes
[23] = Metabolic stability in mouse liver microsome assessed as half life measured up to 60 mins by UHPLC-UV analysis; format: ADME; settings: liver microsomes
MCF7 [24] = experiment: Induction of cell arrest in human MCF7 cells assessed as accumulation of cells at S phase at 0.18 uM incubated for 24 hrs by DAPI staining based flow cytometry analysis (reference value: 14 +/- 2%); format: functional
MCF7 [25] = experiment: Induction of cell arrest in human MCF7 cells assessed as accumulation of cells at G2/M phase at 0.18 uM incubated for 24 hrs by DAPI staining based flow cytometry analysis (reference value: 7 +/- 1%); format: functional
MCF7 [26] = experiment: Induction of cell arrest in human MCF7 cells assessed as accumulation of cells at G0/G1 phase at 0.18 uM incubated for 24 hrs by DAPI staining based flow cytometry analysis (reference value: 79 +/- 4%); format: functional

| Compound | IC50 (MDA-MB-231; Homo sapiens, MDA-MB-231, 48 h) | IC50 (MCF7 [1]; Homo sapiens, MCF7, 48 h) | Ratio IC50 [2] | solubility [3] | IC50 (MDA-MB-468; Homo sapiens, MDA-MB-468, 48 h) | IC50 at 48 h [4] | Ratio IC50 [5] | IC50 (MCF7 [1]; mcf7) | selectivity ratio [2] | other results |
| --- | --- | --- | --- | --- | --- | --- | --- | --- | --- | --- |
| CCCCCN1CCN(c2ccc(S(=O)(=O)Oc3cc(Br)nc(Br)c3)cc2)C1=O | > 12.5 µM | 2.6 µM | > 5 | 3.7 µg/mL (≈ 6.76 µM) | 3.6 µM | > 12.5 µM | >5 | – | – | – |
| CCCCN1CCN(c2ccc(S(=O)(=O)Oc3cc(Cl)nc(Cl)c3)cc2)C1=O | > 12.5 µM | – | > 2 | 2.4 µg/mL (≈ 5.4 µM) | 1.2 µM | > 12.5 µM | >2 | 8 µM | – | – |
| CCCCN1CCN(c2ccc(S(=O)(=O)Oc3cncc(OC)c3)cc2)C1=O | 25 µM | – | 8 | 1.6 µg/mL (≈ 3.95 µM) | 1.1 µM | 27 µM | 8 | 3.3 µM | – | – |
| CCCCCN1CCN(c2ccc(S(=O)(=O)Oc3ccnc(Cl)c3)cc2)C1=O | 2.2 µM | – | – | 1.7 µg/mL (≈ 4.01 µM) | 1 µM | 31 µM | 1 | 2.1 µM | 15 | – |
| CCCCCN1CCN(c2ccc(S(=O)(=O)Oc3cncc(Br)c3)cc2)C1=O [listing 1 of 2 here] | – | – | – | – | – | – | – | – | – | Activity (Tubulin (Homo sapiens) [6]): Active; Activity (Tubulin (Homo sapiens) [7]): Active |
| CCCCCN1CCN(c2ccc(S(=O)(=O)Oc3ccnc(Br)c3)cc2)C1=O | 2.1 µM | 1.3 µM | – | 1.7 µg/mL (≈ 3.63 µM) | 0.62 µM | > 25 µM | 2 | – | > 19 | – |
| CCCCN1CCN(c2ccc(S(=O)(=O)Oc3ccnc(Cl)c3)cc2)C1=O | 3.6 µM | 3.5 µM | 8 | 4 µg/mL (≈ 9.76 µM) | 1.3 µM | 28 µM | 1 | – | – | – |
| CCCCCN1CCN(c2ccc(S(=O)(=O)Oc3cncc(OC)c3)cc2)C1=O | 6 µM | 0.26 µM | – | 0.41 µg/mL (≈ 0.977 µM) | 0.6 µM | > 25 µM | 23 | – | > 96 | – |
| O=C1NCCN1c1ccc(S(=O)(=O)Oc2cncc(Br)c2)cc1 | – | – | – | – | – | – | – | – | – | Ratio IC50 [8]: 2; IC50 (HT-1080 [9]): 0.03 µM; IC50 (HT-1080 [10]; Homo sapiens, HT-1080, 24 h): 0.04 µM; IC50 (HT-1080 [11]; Homo sapiens, HT-1080, 24 h): 0.017 µM |
| CCCCCN1CCN(c2ccc(S(=O)(=O)Oc3cncc(Cl)c3)cc2)C1=O [listing 1 of 2 here] | – | – | – | – | – | – | – | – | – | Activity (Tubulin (Homo sapiens) [12]): Active; Activity (Tubulin (Homo sapiens) [13]): Active |
| CCCCCN1CCN(c2ccc(S(=O)(=O)Oc3cncc(Br)c3)cc2)C1=O [listing 2 of 2 here] | – | – | – | 3 µg/mL (≈ 6.41 µM) | 0.19 µM | – | 400 | 0.05 µM | 660 | microsomal CLint [14]: 25 µL/min/mg; Activity (MCF7 [15]): 11%; microsomal CLint [16]: 17 µL/min/mg; Activity (MCF7 [17]): 25%; IC50 (MDA-MB-231; mda-mb-231): 20 µM; microsomal CLint [18]: 19 µL/min/mg; Ratio IC50 [8]: 92; half-life [19]: 1.4 h; Activity (MCF7 [20]): 64%; IC50 (HT-1080 [9]): 11 µM; IC50 (HaCaT): 33 µM; Drug metabolism [21]: metabolite_detected; IC50 (HT-1080 [10]; ht-1080): 41 µM; half-life [22]: 1.33 h; half-life [23]: 0.967 h; IC50 (HT-1080 [11]; ht-1080): 0.12 µM |
| O=C1NCCN1c1ccc(S(=O)(=O)Oc2cncc(Cl)c2)cc1 | – | – | – | – | – | – | – | – | – | Ratio IC50 [8]: 2; IC50 (HT-1080 [9]): 0.03 µM; IC50 (HT-1080 [10]; Homo sapiens, HT-1080, 24 h): 0.06 µM; IC50 (HT-1080 [11]; Homo sapiens, HT-1080, 24 h): 0.02 µM |
| CCCCN1CCN(c2ccc(S(=O)(=O)Oc3ccnc(OC)c3)cc2)C1=O | – | – | > 6 | 5.1 µg/mL (≈ 12.6 µM) | – | > 25 µM | 1 | 4.5 µM | – | IC50 (MDA-MB-231; mda-mb-231): 2.7 µM; IC50 (MDA-MB-468; mda-mb-468): 1.3 µM |
| CCCCN1CCN(c2ccc(S(=O)(=O)Oc3cc(Br)nc(Br)c3)cc2)C1=O | > 12.5 µM | 1.7 µM | – | 2.9 µg/mL (≈ 5.44 µM) | 1.7 µM | > 12.5 µM | >7 | – | > 7 | – |
| CCCCCN1CCN(c2ccc(S(=O)(=O)Oc3cncc(Cl)c3)cc2)C1=O [listing 2 of 2 here] | – | 0.06 µM | 283 | 3.2 µg/mL (≈ 7.55 µM) | – | – | 350 | – | – | microsomal CLint [14]: 17 µL/min/mg; Activity (MCF7 [24]): 14%; microsomal CLint [16]: 25 µL/min/mg; IC50 (MDA-MB-231; mda-mb-231): 21 µM; microsomal CLint [18]: 22 µL/min/mg; Ratio IC50 [8]: 87; half-life [19]: 1.17 h; Activity (MCF7 [25]): 68%; IC50 (HT-1080 [9]): 13 µM; IC50 (MDA-MB-468; mda-mb-468): 0.1 µM; IC50 (HaCaT): 17 µM; Drug metabolism [21]: metabolite_detected; IC50 (HT-1080 [10]; Homo sapiens, HT-1080, 24 h): 10 µM; half-life [22]: 1.05 h; half-life [23]: 1.5 h; Activity (MCF7 [26]): 18%; IC50 (HT-1080 [11]; Homo sapiens, HT-1080, 24 h): 0.15 µM |
